Test results: the NIST ThermoML archive (doi:10.1016/j.fluid.2016.10.026)
± gives the expanded uncertainty stated by the source.

Experiments:
[1] = refractive index (Na D-line) (dimensionless); conditions: 101 kPa, Liquid, Standard Abbe refractometry
[2] = relative permittivity at zero frequency (dimensionless); conditions: 101 kPa, Liquid, capacitive

CC(=O)c1cccs1 [2-acetylthiophene]
Conditions | refractive index, [1] | relative permittivity at zero frequency, [2]
278.15 K | – | 32.38 ± 0.32
280.65 K | – | 32.01 ± 0.32
283.15 K | 1.5705 ± 0.0003 | 31.64 ± 0.32
285.65 K | 1.5692 ± 0.0003 | 31.28 ± 0.31
288.15 K | 1.568 ± 0.0003 | 30.87 ± 0.31
290.65 K | 1.567 ± 0.0003 | 30.47 ± 0.3
293.15 K | 1.5658 ± 0.0003 | 29.94 ± 0.3
295.65 K | 1.5646 ± 0.0003 | 29.69 ± 0.3
298.15 K | 1.5633 ± 0.0003 | 29.19 ± 0.29
300.65 K | 1.5622 ± 0.0003 | 28.92 ± 0.29
303.15 K | 1.5609 ± 0.0003 | 28.47 ± 0.28
305.65 K | 1.5599 ± 0.0003 | 28.14 ± 0.28
308.15 K | 1.5586 ± 0.0003 | 27.76 ± 0.28
310.65 K | 1.5573 ± 0.0003 | 27.43 ± 0.27
313.15 K | 1.5562 ± 0.0003 | 27.05 ± 0.27
315.65 K | 1.555 ± 0.0003 | 26.75 ± 0.27
318.15 K | 1.5538 ± 0.0003 | 26.32 ± 0.26
320.65 K | 1.5526 ± 0.0003 | 25.95 ± 0.26
323.15 K | 1.5514 ± 0.0003 | 25.68 ± 0.26
325.65 K | 1.5502 ± 0.0003 | 25.33 ± 0.25
328.15 K | 1.549 ± 0.0003 | 25.02 ± 0.25
330.65 K | 1.548 ± 0.0003 | 24.7 ± 0.25
333.15 K | 1.5468 ± 0.0003 | 24.33 ± 0.24
335.65 K | 1.5455 ± 0.0003 | 23.98 ± 0.24
338.15 K | 1.5443 ± 0.0003 | 23.6 ± 0.24
